Holding throughout (assay type): cell-based
The test system of assay [1] is IL-6 in human monocyte cell line (THP-1 cells). The experiment in a line: IL-6 inhibition in LPS-stimulated THP-1 cells (HTRF). The note with it: IL-6 in LPS-stimulated THP-1 cells; for EC50: HTRF; for inhibition at 10 µM: read-out: percent inhibition in brackets beside EC50 >10 μM. In outline: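 THP-1 cells, serum-reduced (1% FBS) for 24 h, were preincubated with compound (10-point 1:3 series from 10 μM, 0.1% DMSO) for 2 h, then stimulated with 500 ng/mL LPS for 22 h at 37° C. IL-6 was read by HTRF (665/620 nm ratio) and normalized to DMSO. EC50 from four-parameter fit; % inhibition at 10 μM given if EC50 >10 μM.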

The test system of assay [2] is Primary human fibroblasts derived from IPF patients (LL29 cells) treated with TGF-β1. The experiment in a line: Inhibition of the fibrotic process: αSMA staining in TGF-β1 treated fibroblasts. Conditions: Fibroblast, 96 h, LL29 fibroblasts treated with TGF-β1, 4 days; for inhibition at 10 µM: read-out: percent inhibition in brackets beside EC50 >10 μM. In outline: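 LL29 IPF-patient lung fibroblasts in 1% FBS F12 were given compounds (11-point, 10 μM to […], 0.1% DMSO) plus TGF-β1 20 ng/mL for 4 days at 37 °C. αSMA-positive fraction of live (SYTOX-negative) cells was imaged and normalized to TGF-β1/DMSO wells. EC50 by non-linear regression, or % inhibition at 10 μM if >10 μM.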

In a further assay the test system is SW480 colon cancer cells. The experiment in a line: Cell viability assay (CellTiter-Blue), four days. The note with it: Homo sapiens, 96 h; for inhibition at 10 µM: read-out: percent inhibition at 10 μM (given for EC50 of >10 μM); for EC50: CellTiter-Blue cell viability. In a few lines:
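SW480 colon cancer cells (~2×10^3/well) exposed to 8-point 1:3 dilutions from 10 μM to 0.0045 μM for four days at 37 °C/5% CO2. Viability read by resazurin (CellTiter-Blue) fluorescence after ~3 h, Ex 560/Em 590 nm. EC50 from non-linear regression; percent inhibition at 10 μM given when EC50 >10 μM.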

Molecules are shown by their SMILES.

With `Cn1cc(-c2ccc3[nH]nc(-c4nc5c(N6CCCCC6)nccc5[nH]4)c3n2)c(CO)n1` [Compound 1133, (1-Methyl-4-(3-(4-(piperidin-1-yl)-1H-imidazo[4,5-c]pyridin-2-yl)-1H-pyrazolo [4,3-b]pyridin-5-yl)-1H-pyrazol-3-yl)methanol], the EC50 is above 10 µM in assay [1], 1.06 µM in assay [2] and above 10 µM with SW480 colon cancer cells. Besides, the inhibition at 10 µM was 0% in assay [1] and 28.2% in the assay on SW480 colon cancer cells.

Regarding `COc1cncc(-c2ccc3[nH]nc(-c4nc5c(-c6ccoc6)nccc5[nH]4)c3n2)c1` [Compound 692, 3-(4-(Furan-3-yl)-1H-imidazo[4,5-c]pyridin-2-yl)-5-(5-methoxypyridin-3-yl)-1H-pyrazolo[4,3-b]pyridine], the EC50 in assay [1] is above 10 µM; in assay [2] it was 0.334 µM; with SW480 colon cancer cells, 1.57 µM. In addition, in assay [1], the inhibition at 10 µM stood at 44%.

As to `Cc1ncc(-c2ccc3[nH]nc(-c4nc5c(-c6cccc(F)c6)nccc5[nH]4)c3n2)s1` [Compound 1126, 5-(3-(4-(3-Fluorophenyl)-1H-imidazo[4,5-c]pyridin-2-yl)-1H-pyrazolo[4,3-b]pyridin-5-yl)-2-methylthiazole], the EC50 was above 10 µM in assay [1], 0.203 µM in assay [2] and above 10 µM in the assay on SW480 colon cancer cells. The inhibition at 10 µM in assay [1] came out at 0%; in the assay on SW480 colon cancer cells, 26.6%.

Regarding `Oc1cncc(-c2ccc3[nH]nc(-c4nc5cnccc5[nH]4)c3n2)c1` [Compound 661, 5-(3-(1H-Imidazo[4,5-c]pyridin-2-yl)-1H-pyrazolo[4,3-b]pyridin-5-yl) pyridin-3-ol], the EC50 (in assay [1]; in assay [2]; in the assay on SW480 colon cancer cells) was above 10 µM in each case. The inhibition at 10 µM in assay [1] was 31.3%; in assay [2], 0%; in the assay on SW480 colon cancer cells, 13.5%.

Turning to `Cn1cc(-c2ccc3[nH]nc(-c4nc5c(-c6ccc(F)cc6)nccc5[nH]4)c3n2)c(CO)n1` [Compound 1128, (4-(3-(4-(4-Fluorophenyl)-1H-imidazo[4,5-c]pyridin-2-yl)-1H-pyrazolo[4,3-b]pyridin-5-yl)-1-methyl-1H-pyrazol-3-yl)methanol], the EC50 in assay [1] is above 10 µM; in assay [2], 2.67 µM; with SW480 colon cancer cells, above 10 µM. Further, the inhibition at 10 µM in assay [1] turned out to be 0%; in the assay on SW480 colon cancer cells it was 9.1%.

In the case of `c1cc2[nH]c(-c3n[nH]c4ccc(C5CCNCC5)nc34)nc2c(-c2ccc3c(c2)OCO3)n1` [Compound 1108, 3-(4-(Benzo[d][1,3]dioxol-5-yl)-1H-imidazo[4,5-c]pyridin-2-yl)-5-(piperidin-4-yl)-1H-pyrazolo[4,3-b]pyridine], the EC50 (in assay [1]; in assay [2]; in the assay with SW480 colon cancer cells) was above 10 µM in each case. Moreover, the values for the inhibition at 10 µM (in assay [1]; in assay [2]; in the assay on SW480 colon cancer cells) were 22.8%, 43.7% and 3.8%, respectively.

`NC1CN(c2cncc(-c3ccc4[nH]nc(-c5nc6c(-c7ccc(Cl)s7)nccc6[nH]5)c4n3)n2)C1` [Compound 1068, 1-(6-(3-(4-(5-Chlorothiophen-2-yl)-1H-imidazo[4,5-c]pyridin-2-yl)-1H-pyrazolo[4,3-b]pyridin-5-yl)pyrazin-2-yl)azetidin-3-amine]: the EC50 in assay [1] was above 10 µM; in assay [2], 3.99 µM; in the assay with SW480 colon cancer cells, above 10 µM. Further, the figures for the inhibition at 10 µM (in assay [1]; in the assay with SW480 colon cancer cells) were 19.2% and 48.2%, respectively.

As for `CN1CCN(c2nccc3[nH]c(-c4n[nH]c5ccc(-c6cncnc6)nc45)nc23)CC1` [Compound 251, 3-(4-(4-Methylpiperazin-1-yl)-1H-imidazo[4,5-c]pyridin-2-yl)-5-(pyrimidin-5-yl)-1H-pyrazolo[4,3-b]pyridine], the EC50 (in assay [1]; in assay [2]; with SW480 colon cancer cells) was above 10 µM throughout. In addition, the inhibition at 10 µM in assay [1] is 8.3%; in assay [2], 17.7%; in the assay with SW480 colon cancer cells it was 0%.

For `CCCC(=O)Nc1cncc(-c2ccc3[nH]nc(-c4nc5c(-c6ccsc6)nccc5[nH]4)c3n2)c1` [Compound 297, N-(5-(3-(4-(Thiophen-3-yl)-1H-imidazo[4,5-c]pyridin-2-yl)-1H-pyrazolo [4,3-b]pyridin-5-yl)pyridin-3-yl)butyramide], the EC50 was 3.67 µM in assay [1], above 10 µM in assay [2] and 1.1 µM in the assay on SW480 colon cancer cells. For the same compound, the inhibition at 10 µM in assay [2] turned out to be 16.1%.

With `O=C(Nc1cncc(-c2ccc3[nH]nc(-c4nc5c(-c6ccsc6)nccc5[nH]4)c3n2)c1)c1ccccc1` [Compound 291, N-(5-(3-(4-(Thiophen-3-yl)-1H-imidazo[4,5-c]pyridin-2-yl)-1H-pyrazolo [4,3-b]pyridin-5-yl)pyridin-3-yl)benzamide], the EC50 (in assay [1]; in assay [2]; with SW480 colon cancer cells) was above 10 µM in each case. The figures for the inhibition at 10 µM (in assay [1]; in assay [2]; in the assay on SW480 colon cancer cells) were 0%, 0% and 2%, respectively.

`c1cc2[nH]c(-c3n[nH]c4ccc(-c5cncc(OCCN6CCCC6)c5)nc34)nc2c(-c2ccoc2)n1` [Compound 690, 3-(4-(Furan-3-yl)-1H-imidazo[4,5-c]pyridin-2-yl)-5-(5-(2-(pyrrolidin-1-yl)ethoxy)pyridin-3-yl)-1H-pyrazolo[4,3-b]pyridine]: the EC50 in assay [1] is 1.46 µM; in assay [2] it was above 10 µM; in the assay on SW480 colon cancer cells, 4.3 µM. Moreover, the inhibition at 10 µM in assay [2] came to 42.6%.

In the case of `O=C(Nc1cncc(-c2ccc3[nH]nc(-c4nc5c(-c6ccccn6)nccc5[nH]4)c3n2)c1)c1ccccc1` [Compound 151, N-(5-(3-(4-(Pyridin-2-yl)-1H-imidazo[4,5-c]pyridin-2-yl)-1H-pyrazolo[4,3-b]pyridin-5-yl)pyridin-3-yl)benzamide], the EC50 (in assay [1]; in assay [2]; in the assay on SW480 colon cancer cells) was above 10 µM in each case. Besides, the inhibition at 10 µM stood at 28.9% in assay [1], 0% in assay [2] and 1.6% in the assay on SW480 colon cancer cells.

In the case of `COc1cccc(-c2nccc3[nH]c(-c4n[nH]c5ccc(-c6cccnc6)nc45)nc23)c1` [Compound 994, 3-(4-(3-Methoxyphenyl)-1H-imidazo[4,5-c]pyridin-2-yl)-5-(pyridin-3-yl)-1H-pyrazolo[4,3-b]pyridine], the figures for the EC50 (in assay [1]; in assay [2]; in the assay with SW480 colon cancer cells) were above 10 µM, 4.71 µM and above 10 µM, respectively. The inhibition at 10 µM worked out at 18.6% in assay [1] and 0% in the assay on SW480 colon cancer cells.

For the compound `CC(C)CC(=O)Nc1cncc(-c2ccc3[nH]nc(-c4nc5c(-c6ccc(Cl)s6)nccc5[nH]4)c3n2)c1` [Compound 1037, N-(5-(3-(4-(5-Chlorothiophen-2-yl)-1H-imidazo[4,5-c]pyridin-2-yl)-1H-pyrazolo [4,3-b]pyridin-5-yl)pyridin-3-yl)-3-methylbutanamide], the EC50 in assay [1] was above 10 µM; in assay [2] it was 0.776 µM; in the assay with SW480 colon cancer cells, 1.16 µM. Moreover, the inhibition at 10 µM in assay [1] is 18.1%.

Consider `Clc1ccc(-c2nccc3[nH]c(-c4n[nH]c5ccc(-c6cncc(CN7CCCC7)c6)nc45)nc23)s1` [Compound 1049, 3-(4-(5-Chlorothiophen-2-yl)-1H-imidazo[4,5-c]pyridin-2-yl)-5-(5-(pyrrolidin-1-ylmethyl)pyridin-3-yl)-1H-pyrazolo [4,3-b]pyridine], for which the EC50 in assay [1] was above 10 µM; in assay [2] it was 1.19 µM; with SW480 colon cancer cells, 0.926 µM. For the same compound, the inhibition at 10 µM in assay [1] was found to be 13.2%.

Take `c1cncc(-c2ccc3[nH]nc(-c4nc5cnccc5[nH]4)c3n2)c1` [Compound 256, 3-(1H-Imidazo[4,5-c]pyridin-2-yl)-5-(pyridin-3-yl)-1H-pyrazolo[4,3-b]pyridine]: the EC50 (in assay [1]; in assay [2]; in the assay with SW480 colon cancer cells) was above 10 µM throughout. Further, the inhibition at 10 µM in assay [1] was found to be 35.5%; in assay [2], 0%; with SW480 colon cancer cells it was 1.8%.

For the compound `CCNCc1cncc(-c2ccc3[nH]nc(-c4nc5c(-c6ccoc6)nccc5[nH]4)c3n2)c1` [Compound 314, N-((5-(3-(4-(Furan-3-yl)-1H-imidazo[4,5-c]pyridin-2-yl)-1H-pyrazolo[4,3-b]pyridin-5-yl)pyridin-3-yl)methyl)ethanamine], the results for the EC50 (in assay [1]; in assay [2]; with SW480 colon cancer cells) were above 10 µM, above 10 µM and 0.684 µM, respectively. The inhibition at 10 µM in assay [1] was 36%; in assay [2], 20.6%.

For the compound `COc1cccc(-c2nccc3[nH]c(-c4n[nH]c5ccc(-c6cncc(NC(=O)Cc7ccccc7)c6)nc45)nc23)c1` [Compound 1000, N-(5-(3-(4-(3-methoxyphenyl)-1H-imidazo[4,5-c]pyridin-2-yl)-1H-pyrazolo [4,3-b]pyridin-5-yl)pyridin-3-yl)-2-phenylacetamide], the values for the EC50 (in assay [1]; in assay [2]; with SW480 colon cancer cells) were above 10 µM, 2.55 µM and above 10 µM, respectively. Further, the inhibition at 10 µM came to 11.4% in assay [1] and 25.5% with SW480 colon cancer cells.
